Results: US6620828B2, “Thiazole compounds and pharmaceutical compositions for inhibiting protein kinases and methods for their use” (Agouron Pharmaceuticals, Inc., priority 1999, dated 2003)

Tested on: human umbilical vein endothelial cells (HUVEC)
Experiment: HUVEC proliferation assay
Assay type: cell-based
Conditions: Homo sapiens, HUVEC, Table I screening results; 150 nM; crude combinatorial amide library
How it was run: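 Exponentially growing HUVEC were serum-starved 24 h (F12K + 1% FBS), pre-treated 1 h with compound (0.1% DMSO final), then stimulated with 6 ng/ml VEGF. Proliferation was read 72 h later by MTT reduction (A595). IC50 came from seven 0.5-log concentrations in triplicate; screens gave % inhibition relative to VEGF-only and starved wells.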

COc1cc(Nc2nc(N)c(-c3nc(-c4cccc(NC(=O)CC(c5ccccc5)c5ccccc5)c4)cs3)s2)cc(OC)c1OC was tested, and the inhibition at 0.15 µM was 10%.
COc1cc(Nc2nc(N)c(-c3nc(-c4cccc(NC(=O)c5ccoc5)c4)cs3)s2)cc(OC)c1OC was tested, and the inhibition at 0.15 µM was 7%.
COc1cc(Nc2nc(N)c(-c3nc(-c4cccc(NC(=O)c5ccco5)c4)cs3)s2)cc(OC)c1OC gave an inhibition at 0.15 µM of 15%.
For COc1cc(Nc2nc(N)c(-c3nc(-c4cccc(NC(=O)c5ccc6c(c5)C(=O)c5ccccc5-6)c4)cs3)s2)cc(OC)c1OC, the inhibition at 0.15 µM was -4%.
Molecule COc1cc(Nc2nc(N)c(-c3nc(-c4cccc(NC(=O)CCc5c[nH]c6ccccc56)c4)cs3)s2)cc(OC)c1OC has an inhibition at 0.15 µM of -4%.
COc1cc(Nc2nc(N)c(-c3nc(-c4cccc(NC(=O)CNC(=O)c5ccccc5)c4)cs3)s2)cc(OC)c1OC was tested, and the inhibition at 0.15 µM was -26%.
COc1cc(Nc2nc(N)c(-c3nc(-c4cccc(NC(=O)c5cc6ccccc6[nH]5)c4)cs3)s2)cc(OC)c1OC gave an inhibition at 0.15 µM of 4%.
Molecule COc1cc(Nc2nc(N)c(-c3nc(-c4cccc(NC(=O)c5c[nH]c6ccccc56)c4)cs3)s2)cc(OC)c1OC has an inhibition at 0.15 µM of 20%.
Molecule COc1cc(Nc2nc(N)c(-c3nc(-c4cccc(NC(=O)Cc5ccc6ccccc6c5)c4)cs3)s2)cc(OC)c1OC has an inhibition at 0.15 µM of -7%.
Molecule COc1cc(Nc2nc(N)c(-c3nc(-c4cccc(NC(=O)Cc5cccc6ccccc56)c4)cs3)s2)cc(OC)c1OC has an inhibition at 0.15 µM of 6%.
COc1cc(Nc2nc(N)c(-c3nc(-c4cccc(NC(=O)c5ccc6ccccc6c5)c4)cs3)s2)cc(OC)c1OC was tested, and the inhibition at 0.15 µM was 53%.
COc1cc(Nc2nc(N)c(-c3nc(-c4cccc(NC(=O)c5cccc6ccccc56)c4)cs3)s2)cc(OC)c1OC was tested, and the inhibition at 0.15 µM was 22%.
For COc1cc(Nc2nc(N)c(-c3nc(-c4cccc(NC(=O)Cc5cccnc5)c4)cs3)s2)cc(OC)c1OC, the inhibition at 0.15 µM was -20%.
Molecule COc1cc(Nc2nc(N)c(-c3nc(-c4cccc(NC(=O)/C=C/c5ccccn5)c4)cs3)s2)cc(OC)c1OC has an inhibition at 0.15 µM of -7%.
COc1cc(Nc2nc(N)c(-c3nc(-c4cccc(NC(=O)Cc5cc(F)ccc5F)c4)cs3)s2)cc(OC)c1OC showed an inhibition at 0.15 µM of 49%.
COc1cccc(CC(=O)Nc2cccc(-c3csc(-c4sc(Nc5cc(OC)c(OC)c(OC)c5)nc4N)n3)c2)c1 was tested, and the inhibition at 0.15 µM was 12%.
Work on COc1cc(Nc2nc(N)c(-c3nc(-c4cccc(NC(=O)Cc5cc(C)ccc5C)c4)cs3)s2)cc(OC)c1OC yielded an inhibition at 0.15 µM of 12%.
COc1cc(Nc2nc(N)c(-c3nc(-c4cccc(NC(=O)C5C[C@@H]6C=C[C@H]5C6)c4)cs3)s2)cc(OC)c1OC (some centres unmarked) gave an inhibition at 0.15 µM of 37%.
COC(=O)c1cccc(C(=O)Nc2cccc(-c3csc(-c4sc(Nc5cc(OC)c(OC)c(OC)c5)nc4N)n3)c2)c1 was tested, and the inhibition at 0.15 µM was 42%.
For COC(=O)c1ccc(C(=O)Nc2cccc(-c3csc(-c4sc(Nc5cc(OC)c(OC)c(OC)c5)nc4N)n3)c2)nc1, the inhibition at 0.15 µM was 20%.
COc1cc(Nc2nc(N)c(-c3nc(-c4cccc(NC(=O)c5c[nH]cn5)c4)cs3)s2)cc(OC)c1OC was tested, and the inhibition at 0.15 µM was 15%.
COc1cc(OC)cc(C(=O)Nc2cccc(-c3csc(-c4sc(Nc5cc(OC)c(OC)c(OC)c5)nc4N)n3)c2)c1 was tested, and the inhibition at 0.15 µM was 51%.
Work on COc1cc(Nc2nc(N)c(-c3nc(-c4cccc(NC(=O)CCc5ccc(C)cc5)c4)cs3)s2)cc(OC)c1OC yielded an inhibition at 0.15 µM of 25%.
COc1cc(Nc2nc(N)c(-c3nc(-c4cccc(NC(=O)C5Cc6ccccc65)c4)cs3)s2)cc(OC)c1OC (centres unmarked) was tested, and the inhibition at 0.15 µM was 56%.
Work on COc1cc(Nc2nc(N)c(-c3nc(-c4cccc(NC(=O)c5cc(C)cc(C)c5)c4)cs3)s2)cc(OC)c1OC yielded an inhibition at 0.15 µM of 78%.
COc1cc(Nc2nc(N)c(-c3nc(-c4cccc(NC(=O)c5ccc(NC(C)=O)cc5)c4)cs3)s2)cc(OC)c1OC showed an inhibition at 0.15 µM of 16%.
COc1cc(Nc2nc(N)c(-c3nc(-c4cccc(NC(=O)c5ccc(C(C)(C)C)cc5)c4)cs3)s2)cc(OC)c1OC showed an inhibition at 0.15 µM of 26%.
COc1cc(Nc2nc(N)c(-c3nc(-c4cccc(NC(=O)c5ccc(C)cc5)c4)cs3)s2)cc(OC)c1OC gave an inhibition at 0.15 µM of 66%.
Work on COc1cc(Nc2nc(N)c(-c3nc(-c4cccc(NC(=O)CC(C)c5ccccc5)c4)cs3)s2)cc(OC)c1OC (centres unmarked) yielded an inhibition at 0.15 µM of 26%.
